Measured values: patent US11352606B2, “Low oxygen tension enhances endothelial fate of human pluripotent stem cells” (THE JOHNS HOPKINS UNIVERSITY, priority 2014, dated 2022)

Test system: VEcad and CD31 mRNA expression in EVCs
Details: DPI days 3-6, 5% O2, after 12 days
Procedure: Real-time quantitative RT-PCR. Two-step reverse transcription polymerase chain reaction (RT-PCR) was performed on differentiated and undifferentiated (day 0) hPSCs as previously described in accordance with Applied Biosystems manufacturer instructions (Kusuma et al., The FASEB Journal. 2012; 26:4925-4936). For each primer set (CD34, KDR, CD56, VEcad, CD31, ephrinB2, EphB4, Nrp1, Nrp2), the comparative […] method (Applied Biosystems, Foster City, Calif.) was used to calculate the amplification differences between different samples. The values for experiments were averaged and graphed with standard deviations.
ROS detection and inhibition. Previously published protocols were followed to detect and inhibit ROS production (Abaci et al., American Journal of Physiology—Cell Physiology. 2011; 301:C431-C440). For ROS detection, the culture media was replaced with 10 μM 2′,7′-dichlorodihydrofluorescein diacetate (H2-DCFDA) (Invitrogen) in PBS and incubated for 30 min at 37° C. Samples were washed with PBS three times prior to imaging. For ROS inhibition, cells were treated with diphenyleneiodonium (DPI) (Sigma-Aldrich) at a concentration of 10 μM.
DPI-treated cells were maintained in 5% O2 conditions for the second six days of differentiation but without DPI.

[1] = RT-PCR normalized to control (atmospheric) EVCs

c1ccc2c(c1)[I+]c1ccccc1-2 [DPI, diphenyleneiodonium]
CD31 expression compared to EVCs differentiated in 5% O2 without DPI: significantly lower | VEcad expression compared to EVCs differentiated in 5% O2 without DPI: significantly lower | expression of CD31 compared to control EVCs [1]: lower | expression of VEcad compared to control EVCs [1]: similar
